Assay results from patent publication EP0803065B1, “A-PROTEIN AS A DIAGNOSTIC OF CANCER” (THE SCHEPENS EYE RESEARCH INSTITUTE, priority 1995, dated 1996).
One block for each compound: values may come before it.

What was measured:
[1] = molecular target: T1, membrane-bound A-protein (Am), purified from bovine rod outer segments, N-terminus SEQ ID NO:1 (Bos taurus, UniProt P21457); experiment: ATPase assay (hydrolysis of [γ-32P]ATP); type: biochemical; conditions: double reciprocal plots and regression analysis
T1 sequence (P21457 2-202): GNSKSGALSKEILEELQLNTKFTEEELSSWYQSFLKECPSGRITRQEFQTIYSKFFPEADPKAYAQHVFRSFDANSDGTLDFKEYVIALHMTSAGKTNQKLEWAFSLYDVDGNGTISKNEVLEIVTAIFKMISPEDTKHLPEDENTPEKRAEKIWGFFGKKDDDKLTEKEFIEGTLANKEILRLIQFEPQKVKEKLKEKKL
Experimental: (§1) GTP (2.8 Ci/mmol) or 88.8 to 177.5 nM [γ-^32P] […] The stripped ROS membranes (containing rhodopsin as the receptor) were prepared by washing ROS membranes 3 times in buffer C(100 mM NaCl, 20 mM Tris-HCl, pH 7.0, 1 mM MgCl2) and 3 times in water containing 0.01% polyoxyethylene 23 lauryl ether (Brij 35™ nonionic detergent, Sigma Chemical Co.). The stripped membranes were resuspended in buffer D (10 mM Tris-HCl, pH 7.0, 0.1 mM EGTA) prior to use.
(§2) Samples were incubated at room temperature for 5 minutes and quenched with 200 µl ice-cold quench buffer ([…] KH2PO4, 6% Norite A, 10% TCA). The samples were kept on ice for 30 minutes and spun down for 5 minutes in a microcentrifuge. 50 µl aliquots of each supernatant were placed in a vial with 5 ml scintillation fluid and assayed for radioactivity. The hydrolysis of [γ-^32P]-GTP was measured in the presence and absence of photolyzed rhodopsin.
Km and Vmax were determined by construction of double reciprocal plots and regression analysis.

[2] = molecular target: T1, membrane-bound A-protein (Am), purified from bovine rod outer segments, N-terminus SEQ ID NO:1; experiment: GTPase assay (hydrolysis of [γ-32P]GTP); type: biochemical
Experimental: as §1, §2
The apparent Michaelis constant was determined for As and Am by measuring the rate of GTP hydrolysis over a thousand-fold range of substrate concentrations. Km and Vmax were determined by construction of double reciprocal plots and regression analysis.

[3] = molecular target: transducin (Tα) (Bos taurus, UniProt P04695); experiment: GTPase assay, comparison protein; type: biochemical; conditions: mol/mol basis, submaximal velocity, in the presence of photoactivated rhodopsin
transducin (Tα), sequence (P04695 2-350 limits assumed): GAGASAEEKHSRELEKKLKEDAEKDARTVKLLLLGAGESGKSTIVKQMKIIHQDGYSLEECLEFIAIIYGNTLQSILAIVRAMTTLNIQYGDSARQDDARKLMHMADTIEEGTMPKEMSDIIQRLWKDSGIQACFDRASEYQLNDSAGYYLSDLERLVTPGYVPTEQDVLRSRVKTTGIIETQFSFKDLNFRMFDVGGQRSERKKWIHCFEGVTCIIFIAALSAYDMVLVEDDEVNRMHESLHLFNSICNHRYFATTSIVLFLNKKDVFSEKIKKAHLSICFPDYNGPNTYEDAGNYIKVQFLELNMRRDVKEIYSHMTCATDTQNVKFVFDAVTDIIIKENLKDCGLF
Experimental: as §1, §2
The GTPase rates for Am and transducin are additive when the two purified proteins are present in approximately equimolar concentrations.

[4] = molecular target: T1, membrane-bound A-protein (Am), purified from bovine rod outer segments, N-terminus SEQ ID NO:1; experiment: GTP analog binding assay (nitrocellulose filtration); conditions: 30 minutes, no cofactors
Experimental: (§3) Assays of the binding of the GTP-analogs Gpp(NH)p and GTPγS (New England Nuclear) by both Am and AS were performed according to the methods of Northup et al. (J. Biol. Chem., 257:11416-11423 (1982)). Binding was carried out in a total volume of 100 µl of solution containing 5 to 10 µg purified A-protein, 15.3 µM 3H-Gpp(NH)p (10 µCi) or 1.32 µM GTPγS^35 (1 µCi) and buffer (100 mM NaCl, 0.1 mM EDTA, 20 mM Tris-HCl, pH 7.0). The samples were vortexed and incubated at 25°C for 30 minutes, quenched with 200 µl ice-cold buffer (0.5 M NaCl, 0.1 M Tris-HCl, 0.1% Tween 80™), and kept on ice for 30 minutes. The samples were placed onto nitrocellulose filters that had been previously washed with 2 ml of the same buffer. The filters were rinsed 5 times with 2 ml ice-cold buffer and assayed for radioactivity.

[5] = molecular target: T2, soluble A-protein (As), purified from bovine rod outer segments, N-terminus SEQ ID NO:2 (Bos taurus, UniProt P21457); experiment: as above; conditions: 30 minutes, no cofactors
T2 sequence (P21457 2-202): T1 sequence (P21457 2-202)
Experimental: as §3

Compound: Nc1ncnc2c1ncn2[C@@H]1O[C@H](COP(=O)(O)OP(=O)(O)OP(=O)(O)O)[C@@H](O)[C@H]1O [ATP, adenosine triphosphate]
- Vmax:Am ATPase [1]: 2.90 (±0.16) pmol/mg A-protein min^-1

- Vmax:Am GTPase ([2]; double reciprocal plots and regression analysis): 16.4 nmol/mgAmmin^-1
- rate of GTP hydrolysis by Am ([2]; mol/mol basis, submaximal velocity, in the presence of photoactivated rhodopsin): 0.458 GTP sec^-1/Am
- rate of GTP hydrolysis by transducin [3]: 0.512 GTP sec^-1/Tα
Compound: Nc1nc2c(ncn2[C@@H]2O[C@H](COP(=O)(O)OP(=O)(O)OP(=O)(O)O)[C@@H](O)[C@H]2O)c(=O)[nH]1 [GTP, guanosine triphosphate]

Compound: Nc1nc2c(ncn2[C@@H]2O[C@H](COP(=O)(O)OP(=O)(O)OP(O)(O)=S)[C@@H](O)[C@H]2O)c(=O)[nH]1 [GTPγS]
- GTPγS bound by Am ([4]; 1.32 µM GTPγS35, 25°C): 0.93 mol GTP Analog/mol Protein
- GTPγS bound by As ([5]; 1.32 µM GTPγS35, 25°C): 0.47 mol GTP Analog/mol Protein

- Gpp(NH)p bound by Am ([4]; 15.3 µM 3H-Gpp(NH)p, 25°C): 0.57 ± 0.12 mol GTP Analog/mol Protein
- Gpp(NH)p bound by As ([5]; 15.3 µM 3H-Gpp(NH)p, 25°C): 0.29 ± 0.08 mol GTP Analog/mol Protein
Compound: Nc1nc2c(ncn2[C@@H]2O[C@H](COP(=O)(O)OP(=O)(O)NP(=O)(O)O)[C@@H](O)[C@H]2O)c(=O)[nH]1 [Gpp(NH)p]
